From ChEMBL document CHEMBL3885881, “DrugMatrix”

Organism: Rattus norvegicus
Test: DrugMatrix - Regimen: Daily Repeat
Type: toxicity, organism-based, Sprague-Dawley
Parameters: regimen Daily Repeat, gender Male, age 6-8 weeks
Conditions: in vivo, po, route oral GAVAGE, vehicle 100 % WATER
[1] = 1 mg/kg, 72 h, tissue Plasma, dose level Low, time 3 day
[2] = 1 mg/kg, 120 h, tissue Blood, dose level Low, time 5 day
[3] = 1 mg/kg, 120 h, tissue Plasma, dose level Low, time 5 day
[4] = 10 mg/kg, 72 h, tissue Blood, dose level High, time 3 day
[5] = 10 mg/kg, 72 h, tissue Plasma, dose level High, time 3 day
[6] = 10 mg/kg, 120 h, tissue Blood, dose level High, time 5 day
[7] = 10 mg/kg, 120 h, tissue Plasma, dose level High, time 5 day

THIMEROSAL
TOTAL BILIRUBIN [1]: 0.2 mg/dL
TOTAL PROTEIN [1]: 5.73 G/DL
ABSOLUTE BASOPHIL [2]: 0 CELLS/uL
ABSOLUTE EOSINOPHIL [2]: 50.33 CELLS/uL
ABSOLUTE MONOCYTE [2]: 268.67 CELLS/uL
ABSOLUTE SEGMENTED NEUTROPHIL [2]: 1091 CELLS/uL
BASOPHIL [2]: 0%
EOSINOPHIL [2]: 0.33%
ERYTHROCYTE COUNT [2]: 5.58 x10E6/uL
HEMATOCRIT [2]: 35.07%
LEUKOCYTE COUNT [2]: 11.73 x10E3/uL
LYMPHOCYTE [2]: 88%
MEAN CORPUSCULAR HEMOGLOBIN [2]: 25.23 pg
MEAN CORPUSCULAR HEMOGLOBIN CONCENTRATION [2]: 40.13 G/DL
NUCLEATED RED BLOOD CELLS [2]: 0 /100WBC
PLATELET COUNT [2]: 1316.33 x10E3/uL
ALANINE AMINOTRANSFERASE [3]: 43.33 u/L
ALKALINE PHOSPHATASE [3]: 369 u/L
ASPARTATE AMINOTRANSFERASE [3]: 83.33 u/L
BLOOD UREA NITROGEN [3]: 15.67 mg/dL
CARBON DIOXIDE [3]: 30.33 mmol/L
CHOLESTEROL [3]: 67.33 mg/dL
CREATINE PHOSPHOKINASE [3]: 227.33 u/L
CREATININE [3]: 0.2 mg/dL
GLUCOSE [3]: 177.33 mg/dL
LACTATE DEHYDROGENASE [3]: 246 u/L
LIPASE [3]: 10 u/L
PHOSPHORUS [3]: 11.2 mg/dL
POTASSIUM [3]: 6.65 MEQ/L
TOTAL BILIRUBIN [3]: 0.27 mg/dL
TOTAL PROTEIN [3]: 5.93 G/DL
URIC ACID [3]: 1.4 mg/dL
ABSOLUTE BASOPHIL [4]: 0 CELLS/uL
ABSOLUTE EOSINOPHIL [4]: 0 CELLS/uL
ABSOLUTE MONOCYTE [4]: 196.33 CELLS/uL
ABSOLUTE SEGMENTED NEUTROPHIL [4]: 1492 CELLS/uL
BASOPHIL [4]: 0%
EOSINOPHIL [4]: 0%
ERYTHROCYTE COUNT [4]: 5.18 x10E6/uL
HEMATOCRIT [4]: 33.3%
HEMOGLOBIN [4]: 13.3 G/DL
LEUKOCYTE COUNT [4]: 14.17 x10E3/uL
LYMPHOCYTE [4]: 88.67%
MEAN CORPUSCULAR HEMOGLOBIN [4]: 25.73 pg
MEAN CORPUSCULAR HEMOGLOBIN CONCENTRATION [4]: 39.93 G/DL
NEUTROPHIL [4]: 10%
NUCLEATED RED BLOOD CELLS [4]: 0.33 /100WBC
PLATELET COUNT [4]: 1209 x10E3/uL
ALANINE AMINOTRANSFERASE [5]: 54.33 u/L
ALBUMIN [5]: 3.7 G/DL
ALKALINE PHOSPHATASE [5]: 440.67 u/L
ASPARTATE AMINOTRANSFERASE [5]: 82.67 u/L
BLOOD UREA NITROGEN [5]: 15 mg/dL
CARBON DIOXIDE [5]: 30 mmol/L
CHOLESTEROL [5]: 107.67 mg/dL
CREATINE PHOSPHOKINASE [5]: 183.33 u/L
CREATININE [5]: 0.16 mg/dL
LACTATE DEHYDROGENASE [5]: 137 u/L
PHOSPHORUS [5]: 11 mg/dL
POTASSIUM [5]: 6.64 MEQ/L
TOTAL BILIRUBIN [5]: 0.2 mg/dL
TOTAL PROTEIN [5]: 5.57 G/DL
ABSOLUTE BASOPHIL [6]: 0 CELLS/uL
ABSOLUTE EOSINOPHIL [6]: 0 CELLS/uL
ABSOLUTE LYMPHOCYTE [6]: 10043.33 CELLS/uL
ABSOLUTE MONOCYTE [6]: 291.67 CELLS/uL
ABSOLUTE SEGMENTED NEUTROPHIL [6]: 1665 CELLS/uL
BASOPHIL [6]: 0%
EOSINOPHIL [6]: 0%
ERYTHROCYTE COUNT [6]: 6.38 x10E6/uL
HEMATOCRIT [6]: 39.67%
HEMOGLOBIN [6]: 15.6 G/DL
LEUKOCYTE COUNT [6]: 12 x10E3/uL
LYMPHOCYTE [6]: 84.67%
MEAN CORPUSCULAR HEMOGLOBIN [6]: 24.57 pg
NEUTROPHIL [6]: 13%
NUCLEATED RED BLOOD CELLS [6]: 0 /100WBC
PLATELET COUNT [6]: 1253 x10E3/uL
ALANINE AMINOTRANSFERASE [7]: 56.33 u/L
ALKALINE PHOSPHATASE [7]: 463.67 u/L
ASPARTATE AMINOTRANSFERASE [7]: 83.67 u/L
BLOOD UREA NITROGEN [7]: 15.67 mg/dL
CHOLESTEROL [7]: 116.33 mg/dL
CREATINE PHOSPHOKINASE [7]: 208.33 u/L
CREATININE [7]: 0.22 mg/dL
GLUCOSE [7]: 156 mg/dL
LACTATE DEHYDROGENASE [7]: 176.33 u/L
PHOSPHORUS [7]: 10.43 mg/dL
POTASSIUM [7]: 6.38 MEQ/L
TOTAL BILIRUBIN [7]: 0.1 mg/dL
TOTAL PROTEIN [7]: 6 G/DL
URIC ACID [7]: 1.63 mg/dL
